The text below walks through data of patent EP0327492A1, “Herbicidally and plantgrowth regulatory active quinoline and pyrindine compounds” (CIBA-GEIGY AG, priority 1988, dated 1989).

Common to all, as to type: in vivo
One data set has as its system Abutilon. The data set is described as follows: Post-emergent herbicidal action, contact herbicide (B.3). The note with it: 500 bis 2000 [g/ha], 15 days after treatment. Here is the method: (§1) Im Gewächshaus wird unmittelbar nach der Einsaat der Versuchspflanzen in Saatschalen die Erdoberfläche mit einer wässrigen Dispersion der Wirkstoffe, erhalten aus einem 25 %igen Emulsionskonzentrat behandelt. Es werden Konzentrationen von 2000-500 g Wirksubstanz/Hektar angewendet. Die Saatschalen werden im Gewächshaus bei 22-25° C und 50-70 % relativer Luftfeuchtigkeit gehalten und der Versuch nach 3 Wochen ausgewertet und die Resultate nach folgender Notenskala ausgewertet. • 1 Pflanze hat nicht gekeimt oder ist eingegangen • 2-3 sehr starke Schäden • 4 starke Schäden • 5 mittlere Schäden, die Pflanzen sind verkümmert • 6 Schäden, die Pflanze kann regenerieren • 7-8 leichte Schäden • 9 normales Wachstum, wie das unbehandelter Pflanzen
(§2) Boniturnoten von 1 bis 4 (insbesondere von 1 bis 3) weisen auf eine gute bis sehr gute Herbizidwirkung hin. Boniturnoten von 6 bis 9 (insbesondere 7 bis 9) weisen auf eine gute Toleranz (insbesondere bei Kulturpflanzen) hin.
(§3) Eine Anzahl Unkräuter, sowohl monokotyle wie dikotyle, werden nach dem Auflaufen (im 4- bis 6-Blattstadium) mit einer wässrigen Wirkstoffdispersion in einer Dosierung von 2000-500 g Wirksubstanz pro Hektar auf die Pflanzen gespritzt und diese bei 24°-26°C und 45-60 % relativer Luftfeuchtigkeit gehalten. 15 Tage nach der Behandlung wird der Versuch nach dem in Beispiel B.2. gegebenen Massstab bewertet.

In another data set the test system is Alopecurus myos. Described as above. The following applies: 500 bis 2000 [g/ha], 15 days after treatment. Here is the method: as §1, §2, §3
A further data set deals with Amaranthus ret. The description is as above. The note with it: 500 bis 2000 [g/ha], 15 days after treatment. How it is done: as §1, §2, §3
The subject of a further data set is Avena fatua. The description is as above. The note with it: 500 bis 2000 [g/ha], 15 days after treatment. Here is the method:
as §1, §2, §3

Another data set has as its system Bromus tectorum. The description is as above. The note with it: 500 bis 2000 [g/ha], 15 days after treatment. Here is the method:
as §1, §2, §3

For a further data set, the system named is Chenopodium Sp. The description is as above. The note with it: 500 bis 2000 [g/ha], 15 days after treatment. How it is done: as §1, §2, §3
For another data set, the system named is Chrysanthe. leuc. The description is as above. The following applies: 500 bis 2000 [g/ha], 15 days after treatment. Here is the method: as §1, §2, §3
The subject of another data set is Digitaria sang. Described as above. The following applies: 500 bis 2000 [g/ha], 15 days after treatment. Here is the method:
as §1, §2, §3

A further data set relates to Echinochloa crus galli. Described as above. The note with it: 500 bis 2000 [g/ha], 15 days after treatment. How it is done: as §1, §2, §3
A further data set has as its system Galium aparine. Described as above. The note with it: 500 bis 2000 [g/ha], 15 days after treatment. How it is done:
as §1, §2, §3

The next data set relates to Lolium perenne. The description is as above. The following applies: 500 bis 2000 [g/ha], 15 days after treatment. Here is the method: as §1, §2, §3
Another data set concerns Sinapis. The data set is described as above. The note with it: 500 bis 2000 [g/ha], 15 days after treatment. How it is done:
as §1, §2, §3

A further data set has as its system Solanum nigrum. The data set is described as above. The note with it: 500 bis 2000 [g/ha], 15 days after treatment. How it is done:
as §1, §2, §3

Another data set concerns Sorghum halep. The data set is described as above. The note with it: 500 bis 2000 [g/ha], 15 days after treatment. Here is the method:
as §1, §2, §3

Another data set deals with Stellaria. Described as above. The following applies: 500 bis 2000 [g/ha], 15 days after treatment. How it is done:
as §1, §2, §3

A further data set relates to Veronica Sp. The description is as above. The following applies: 500 bis 2000 [g/ha], 15 days after treatment. How it is done: as §1, §2, §3
For the next data set, the system named is Xanthium Sp. Described as above. The note with it: 500 bis 2000 [g/ha], 15 days after treatment. How it is done:
as §1, §2, §3

A further data set concerns Baumwolle. The data set is described as follows: Post-emergent herbicidal action (B.3), crop tolerance. The note with it: 500 bis 2000 [g/ha], 15 days after treatment. Here is the method:
as §1, §2, §3

For a further data set, the system named is Soja. The description is as above. The note with it: 500 bis 2000 [g/ha], 15 days after treatment. How it is done: as §1, §2, §3
For the next data set, the system named is Untersaaten in Mais. The data set is described as follows: Pre-post selectivity: growth inhibition of undersown grasses (post-emergent) versus maize (pre-emergent). An excerpt:
Verbindungen der Formel I zeigen in vorteilhafter Weise eine "pre-post-Selektivität" bei verscheidenen Gräsern in Maiskulturen.
Die wuchshemmende Wirkung in Gräsern ist in postemergenter Applikation stark ausgeprägt, während bei gleichzeitiger Preemergenter Applikation Maispflanzen in ihrem Wuchs nur geringfügig gehemmt werden. Derartige "pre-post-Selektivitäten" erlauben somit die Aussaat von Mais in Gräsern. Dabei soll der Zeitpunkt für die Applikation der Aktivsubstanz der Formel so gewählt werden, dass die Aktivsubstanz postemergent für die Gräser ober preemergent für den Mais angewendet wird. In den ersten Wochen ist der Zuwachs der Gräser so stark gehemmt, dass die Maispflanze sich ungehindert entfalten kann.
Eine Mischung von Gräsern (z.B. Poa, Festuca, Lolium, Bromus, Cynosurus) werden in 15 cm - Kunststofftöpfen mit steriler Landerde angesät und im Gewächshaus bei einer Tagestemperatur von 21°C und einer Nachttemperatur von 17°C angezogen. Die Beleuchtungsdauer beträgt 13,5 Stunden/Tag bei einer Lichtintensität von mind. 7000 Lux. Nach dem Ablauf werden die Pflanzen wöchentlich auf ca. 6 cm Höhe zurückgeschnitten. Ca. 42 Tage nach der Saat und 1 Tag nach dem letzten Schnitt erfolgt die Applikation mit 60-500 g Wirkstoff/ha als wässrige Spritzbrühe. Die Wasseraufwandmenge ist ca. 500 I/ha.
20 Tage nach der Behandlung wird der Versuch ausgewertet. Hierbei wird die Höhe des Neuzuwachses gemessen und in % Hemmung zum Durchschnitt der unbehandelten Kontrollen dargestellt. Die nekrotischen Schäden sind in % zur gesamten Blattfläche aufgeführt.
Mais der Sorte Blizzard G188 werden in 15 cm - Kunststofftöpfen mit steriler gesiebter Landerde angesät und im Gewächshaus bei einer Tagestemperatur von 22°C und einer Nachttemperatur von 19°C aufgestellt. Die Beleuchtungsdauer beträgt mindestens 13,5 Stunden/Tag bei einer Lichtintensität von mindestens 7000 Lux. 1 Tag nach der Saat erfolgt die Applikation mit 60-500 g Wirkstoff/ha, in der Regel 25 %ig formuliert und in wässriger Spritzbrühe. Die Wasseraufwandmenge ist ca. 200 I/ha.
16 Tage nach der Behandlung wird der Versuch ausgewertet. […]

Consider `CC1CCc2nc(C3=NC(=O)C(C)(C(C)C)N3)c(C(=O)O)cc21` (stereo not drawn) [Verbindung 2.06, 7H-5,6-Dihydro-2-(5-isopropyl-5-methyl-1 H-imidazol-4-on-2-yl)-5-methyl-1-pyrindin-3-carbonsäure], for which the Herbizidwirkung entry with Abutilon, with Alopecurus myos., in the data set on Amaranthus ret., in the data set with Avena fatua, in the data set on Bromus tectorum and with Chenopodium Sp. was “gute bis sehr gute Herbizidwirkung (Boniturnoten von 1 bis 4 (insbesondere von 1 bis 3) weisen auf eine gute bis sehr gute Herbizidwirkung hin)” throughout. Moreover, the Herbizidwirkung entry with Chrysanthe. leuc., in the data set with Digitaria sang., in the data set with Echinochloa crus galli, in the data set with Galium aparine, in the data set with Lolium perenne and in the data set with Sinapis was “gute bis sehr gute Herbizidwirkung (Boniturnoten von 1 bis 4 (insbesondere von 1 bis 3) weisen auf eine gute bis sehr gute Herbizidwirkung hin)” throughout. Also, the Herbizidwirkung result in the data set with Solanum nigrum, in the data set with Sorghum halep., in the data set on Stellaria, in the data set on Veronica Sp. and in the data set with Xanthium Sp. was “gute bis sehr gute Herbizidwirkung (Boniturnoten von 1 bis 4 (insbesondere von 1 bis 3) weisen auf eine gute bis sehr gute Herbizidwirkung hin)” each time. The “Toleranz (im Wachstum beeinflusst)” value in the data set with Baumwolle and in the data set with Soja was “gute Toleranz (Boniturnoten von 6 bis 9 (insbesondere 7 bis 9) weisen auf eine gute Toleranz (insbesondere bei Kulturpflanzen) hin)” in each case.

For `CC(C)C1(C)NC(c2nc3c(cc2C(=O)O)C(C)(C)CCC3)=NC1=O` (stereo not drawn) [Verbindung 2.12, 2-(5-Isopropyl-5-methyl-1 H-imidazol-4-on-2-yl)-5,5-dimethyl-5,6,7,8-tetrahydrochinolin-3-carbonsäure], in the data set with Untersaaten in Mais, the “"pre-post-Selektivität" bei Untersaaten in Mais” value is “ausgeprägter "pre-post-Selektivität"”.

With `CC1CCc2cc3c(nc2C1)C1=NC(C)(C(C)C)C(=O)N1C3=O` (stereo not drawn) [Verbindung 3.03, 2,9-Dimethyl-2-isopropyl-7,8,9,10-tetrahydro-3H,5H-imidazo[1',2':1,2]pyrrolo[3,4-b]chinolin-3,5-dion], the “"pre-post-Selektivität" bei Untersaaten in Mais” value with Untersaaten in Mais is “ausgeprägter "pre-post-Selektivität"”.
